{
  "source": "paper PMC9329436",
  "about": "“Optimization of the 4-anilinoquin(az)oline scaffold as epidermal growth factor receptor (EGFR) inhibitors for chordoma utilizing a toxicology profiling assay platform” (Scientific Reports, 2022)",
  "format_in_all_cases": "biochemical",
  "key": {"[1]": {"biological_target": "320 wild-type protein kinases (Homo sapiens, UniProt Q02750)", "sequence (Q02750 whole entry)": "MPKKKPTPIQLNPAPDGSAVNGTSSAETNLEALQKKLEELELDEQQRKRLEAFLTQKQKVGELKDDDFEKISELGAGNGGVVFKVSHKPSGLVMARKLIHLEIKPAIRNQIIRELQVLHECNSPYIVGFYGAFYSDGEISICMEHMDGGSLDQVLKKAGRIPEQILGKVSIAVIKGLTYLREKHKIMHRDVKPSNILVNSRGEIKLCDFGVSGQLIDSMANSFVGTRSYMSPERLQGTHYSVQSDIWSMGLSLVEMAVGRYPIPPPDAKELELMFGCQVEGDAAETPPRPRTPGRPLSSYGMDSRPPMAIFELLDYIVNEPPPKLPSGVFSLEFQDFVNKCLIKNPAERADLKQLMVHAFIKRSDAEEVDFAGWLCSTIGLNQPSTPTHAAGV", "conditions": "singlicate", "excerpt": "(§1) Table S4. Profiling of two compounds at two concentrations against 320 wild-type protein kinases; singlicate measurement; Residual activities (% of control)."}, "[2]": {"biological_target": "T1, 320 wild-type protein kinases (Homo sapiens, UniProt P36888)", "T1 sequence (P36888 27-993)": "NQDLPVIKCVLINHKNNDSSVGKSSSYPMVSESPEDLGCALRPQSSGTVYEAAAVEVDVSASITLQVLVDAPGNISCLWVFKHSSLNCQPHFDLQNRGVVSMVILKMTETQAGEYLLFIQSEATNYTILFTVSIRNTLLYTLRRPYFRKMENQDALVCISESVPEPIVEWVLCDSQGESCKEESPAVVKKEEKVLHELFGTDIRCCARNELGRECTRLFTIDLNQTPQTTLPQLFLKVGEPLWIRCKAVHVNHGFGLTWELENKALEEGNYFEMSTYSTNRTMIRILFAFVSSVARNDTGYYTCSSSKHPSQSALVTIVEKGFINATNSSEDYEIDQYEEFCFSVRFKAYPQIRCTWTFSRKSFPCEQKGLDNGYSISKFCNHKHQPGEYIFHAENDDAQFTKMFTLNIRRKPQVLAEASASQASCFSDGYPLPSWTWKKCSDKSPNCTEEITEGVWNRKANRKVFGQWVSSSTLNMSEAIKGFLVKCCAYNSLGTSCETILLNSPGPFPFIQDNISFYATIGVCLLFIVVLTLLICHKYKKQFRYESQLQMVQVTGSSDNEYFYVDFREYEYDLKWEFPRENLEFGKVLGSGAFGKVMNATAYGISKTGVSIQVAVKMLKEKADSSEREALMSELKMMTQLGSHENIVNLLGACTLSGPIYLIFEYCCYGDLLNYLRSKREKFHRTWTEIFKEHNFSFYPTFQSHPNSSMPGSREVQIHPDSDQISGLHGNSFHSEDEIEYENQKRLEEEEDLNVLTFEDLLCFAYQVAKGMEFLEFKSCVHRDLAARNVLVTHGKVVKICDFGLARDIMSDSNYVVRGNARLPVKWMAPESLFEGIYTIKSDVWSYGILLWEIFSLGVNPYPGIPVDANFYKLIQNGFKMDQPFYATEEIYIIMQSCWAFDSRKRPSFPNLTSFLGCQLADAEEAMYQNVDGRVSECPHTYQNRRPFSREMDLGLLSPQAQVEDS", "conditions": "singlicate", "excerpt": "as §1"}, "[3]": {"biological_target": "T2, 320 wild-type protein kinases (Homo sapiens, UniProt Q13976)", "T2 sequence (Q13976 1-671)": "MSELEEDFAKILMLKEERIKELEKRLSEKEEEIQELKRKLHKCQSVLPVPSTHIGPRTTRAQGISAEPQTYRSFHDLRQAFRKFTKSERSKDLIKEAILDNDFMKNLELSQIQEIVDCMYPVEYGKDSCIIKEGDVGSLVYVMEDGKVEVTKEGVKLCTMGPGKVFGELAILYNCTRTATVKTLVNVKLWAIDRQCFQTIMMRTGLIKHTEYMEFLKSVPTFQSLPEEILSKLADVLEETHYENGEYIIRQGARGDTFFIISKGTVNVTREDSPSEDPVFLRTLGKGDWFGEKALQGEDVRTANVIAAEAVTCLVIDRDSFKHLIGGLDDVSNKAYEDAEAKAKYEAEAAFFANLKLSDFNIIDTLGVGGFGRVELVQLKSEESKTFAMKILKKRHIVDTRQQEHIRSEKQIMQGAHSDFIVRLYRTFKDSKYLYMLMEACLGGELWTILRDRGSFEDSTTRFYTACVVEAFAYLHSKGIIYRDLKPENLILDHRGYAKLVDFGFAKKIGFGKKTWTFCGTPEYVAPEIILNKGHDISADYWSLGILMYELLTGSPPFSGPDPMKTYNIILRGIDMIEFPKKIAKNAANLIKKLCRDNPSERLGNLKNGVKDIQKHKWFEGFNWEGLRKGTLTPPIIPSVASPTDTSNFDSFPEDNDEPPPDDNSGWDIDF", "conditions": "kinase PRKG1, singlicate", "excerpt": "as §1"}, "[4]": {"biological_target": "320 wild-type protein kinases (Homo sapiens, UniProt Q9Y5S2)", "conditions": "CDC42BPB, singlicate", "excerpt": "as §1"}, "[5]": {"biological_target": "320 wild-type protein kinases (Homo sapiens, UniProt Q13464)", "sequence (Q13464 whole entry)": "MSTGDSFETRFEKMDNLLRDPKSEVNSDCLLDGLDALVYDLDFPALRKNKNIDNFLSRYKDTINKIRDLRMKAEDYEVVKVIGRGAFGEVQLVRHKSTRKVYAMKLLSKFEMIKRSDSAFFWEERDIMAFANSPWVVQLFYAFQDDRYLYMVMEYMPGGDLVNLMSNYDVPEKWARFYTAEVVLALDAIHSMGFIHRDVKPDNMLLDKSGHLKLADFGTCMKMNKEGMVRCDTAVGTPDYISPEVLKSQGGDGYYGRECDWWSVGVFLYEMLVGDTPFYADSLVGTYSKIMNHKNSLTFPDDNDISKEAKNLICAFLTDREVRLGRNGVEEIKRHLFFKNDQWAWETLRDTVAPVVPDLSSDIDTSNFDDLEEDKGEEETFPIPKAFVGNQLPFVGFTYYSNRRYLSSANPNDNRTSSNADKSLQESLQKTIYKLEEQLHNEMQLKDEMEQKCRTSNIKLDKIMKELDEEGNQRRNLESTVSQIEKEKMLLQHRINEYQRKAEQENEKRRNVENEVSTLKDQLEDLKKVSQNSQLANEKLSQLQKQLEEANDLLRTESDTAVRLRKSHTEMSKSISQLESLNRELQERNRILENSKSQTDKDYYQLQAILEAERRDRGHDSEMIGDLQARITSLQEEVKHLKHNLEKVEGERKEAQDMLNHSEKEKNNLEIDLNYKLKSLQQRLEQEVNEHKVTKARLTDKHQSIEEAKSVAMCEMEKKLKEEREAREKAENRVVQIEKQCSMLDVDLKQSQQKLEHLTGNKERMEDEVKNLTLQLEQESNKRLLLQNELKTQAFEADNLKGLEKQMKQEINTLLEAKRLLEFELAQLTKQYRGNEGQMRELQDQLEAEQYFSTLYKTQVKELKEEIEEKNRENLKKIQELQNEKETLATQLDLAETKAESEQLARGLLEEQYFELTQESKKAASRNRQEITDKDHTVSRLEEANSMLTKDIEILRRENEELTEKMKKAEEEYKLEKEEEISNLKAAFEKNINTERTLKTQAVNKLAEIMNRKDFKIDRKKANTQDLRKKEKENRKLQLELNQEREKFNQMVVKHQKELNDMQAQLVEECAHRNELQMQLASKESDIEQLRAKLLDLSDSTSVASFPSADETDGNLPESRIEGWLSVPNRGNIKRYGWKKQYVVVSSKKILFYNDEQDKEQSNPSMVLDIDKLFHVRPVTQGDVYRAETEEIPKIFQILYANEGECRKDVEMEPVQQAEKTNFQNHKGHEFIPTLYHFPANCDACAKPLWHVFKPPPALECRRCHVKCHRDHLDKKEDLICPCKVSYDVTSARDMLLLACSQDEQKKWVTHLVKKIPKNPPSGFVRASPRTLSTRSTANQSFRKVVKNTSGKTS", "conditions": "kinase ROCK1, singlicate", "excerpt": "as §1"}, "[6]": {"biological_target": "T3, 320 wild-type protein kinases (Homo sapiens, UniProt Q9UBE8)", "T3 sequence (Q9UBE8 1-527)": "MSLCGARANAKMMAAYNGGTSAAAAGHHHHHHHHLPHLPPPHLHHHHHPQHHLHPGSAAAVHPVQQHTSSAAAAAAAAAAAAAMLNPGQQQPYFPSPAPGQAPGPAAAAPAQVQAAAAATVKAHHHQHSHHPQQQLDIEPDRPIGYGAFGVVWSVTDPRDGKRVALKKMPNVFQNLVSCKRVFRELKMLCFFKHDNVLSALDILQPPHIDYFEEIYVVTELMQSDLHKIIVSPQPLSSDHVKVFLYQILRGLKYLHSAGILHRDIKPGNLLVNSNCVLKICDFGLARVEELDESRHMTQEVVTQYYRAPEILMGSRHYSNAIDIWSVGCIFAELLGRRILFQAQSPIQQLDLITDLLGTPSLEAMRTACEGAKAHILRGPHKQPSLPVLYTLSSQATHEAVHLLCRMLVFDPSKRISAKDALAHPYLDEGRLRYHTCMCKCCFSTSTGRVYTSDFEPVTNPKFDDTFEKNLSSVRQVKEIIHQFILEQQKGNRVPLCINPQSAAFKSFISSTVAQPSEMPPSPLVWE", "conditions": "NLK, singlicate", "excerpt": "as §1"}, "[7]": {"biological_target": "320 wild-type protein kinases (Homo sapiens, UniProt P49840)", "sequence (P49840 whole entry)": "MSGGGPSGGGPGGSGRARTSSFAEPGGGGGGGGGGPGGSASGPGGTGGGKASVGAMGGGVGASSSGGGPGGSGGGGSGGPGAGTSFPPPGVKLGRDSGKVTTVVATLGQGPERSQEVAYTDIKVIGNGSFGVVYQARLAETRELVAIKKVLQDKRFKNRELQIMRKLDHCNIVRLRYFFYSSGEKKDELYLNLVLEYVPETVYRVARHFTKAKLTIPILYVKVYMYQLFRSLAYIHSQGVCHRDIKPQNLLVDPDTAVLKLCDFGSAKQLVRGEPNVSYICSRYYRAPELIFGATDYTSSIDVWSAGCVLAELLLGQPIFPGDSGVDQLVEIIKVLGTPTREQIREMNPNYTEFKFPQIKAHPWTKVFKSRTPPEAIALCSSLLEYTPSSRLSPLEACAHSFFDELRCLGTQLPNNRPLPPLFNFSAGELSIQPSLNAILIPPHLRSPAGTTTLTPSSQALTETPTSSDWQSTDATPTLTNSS", "conditions": "GSK3-alpha, singlicate", "excerpt": "as §1"}, "[8]": {"biological_target": "320 wild-type protein kinases (Homo sapiens, UniProt Q9BYT3)", "sequence (Q9BYT3 whole entry)": "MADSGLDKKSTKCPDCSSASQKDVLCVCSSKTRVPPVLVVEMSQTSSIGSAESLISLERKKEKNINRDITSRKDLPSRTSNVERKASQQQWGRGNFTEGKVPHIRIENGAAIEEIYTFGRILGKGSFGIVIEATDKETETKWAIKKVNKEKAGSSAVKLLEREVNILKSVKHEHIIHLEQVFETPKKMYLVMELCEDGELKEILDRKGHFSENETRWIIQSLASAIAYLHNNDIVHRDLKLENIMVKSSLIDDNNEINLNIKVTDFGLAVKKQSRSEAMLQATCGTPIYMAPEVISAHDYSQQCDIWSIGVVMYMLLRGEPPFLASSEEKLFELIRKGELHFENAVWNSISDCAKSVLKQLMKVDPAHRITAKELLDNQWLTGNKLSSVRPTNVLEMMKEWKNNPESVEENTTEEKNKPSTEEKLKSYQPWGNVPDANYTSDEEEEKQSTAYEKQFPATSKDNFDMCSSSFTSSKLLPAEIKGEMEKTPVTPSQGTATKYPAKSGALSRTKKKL", "conditions": "kinase STK33, singlicate", "excerpt": "as §1"}, "[9]": {"biological_target": "320 wild-type protein kinases (Homo sapiens, UniProt P54764)", "sequence (P54764 20-986)": "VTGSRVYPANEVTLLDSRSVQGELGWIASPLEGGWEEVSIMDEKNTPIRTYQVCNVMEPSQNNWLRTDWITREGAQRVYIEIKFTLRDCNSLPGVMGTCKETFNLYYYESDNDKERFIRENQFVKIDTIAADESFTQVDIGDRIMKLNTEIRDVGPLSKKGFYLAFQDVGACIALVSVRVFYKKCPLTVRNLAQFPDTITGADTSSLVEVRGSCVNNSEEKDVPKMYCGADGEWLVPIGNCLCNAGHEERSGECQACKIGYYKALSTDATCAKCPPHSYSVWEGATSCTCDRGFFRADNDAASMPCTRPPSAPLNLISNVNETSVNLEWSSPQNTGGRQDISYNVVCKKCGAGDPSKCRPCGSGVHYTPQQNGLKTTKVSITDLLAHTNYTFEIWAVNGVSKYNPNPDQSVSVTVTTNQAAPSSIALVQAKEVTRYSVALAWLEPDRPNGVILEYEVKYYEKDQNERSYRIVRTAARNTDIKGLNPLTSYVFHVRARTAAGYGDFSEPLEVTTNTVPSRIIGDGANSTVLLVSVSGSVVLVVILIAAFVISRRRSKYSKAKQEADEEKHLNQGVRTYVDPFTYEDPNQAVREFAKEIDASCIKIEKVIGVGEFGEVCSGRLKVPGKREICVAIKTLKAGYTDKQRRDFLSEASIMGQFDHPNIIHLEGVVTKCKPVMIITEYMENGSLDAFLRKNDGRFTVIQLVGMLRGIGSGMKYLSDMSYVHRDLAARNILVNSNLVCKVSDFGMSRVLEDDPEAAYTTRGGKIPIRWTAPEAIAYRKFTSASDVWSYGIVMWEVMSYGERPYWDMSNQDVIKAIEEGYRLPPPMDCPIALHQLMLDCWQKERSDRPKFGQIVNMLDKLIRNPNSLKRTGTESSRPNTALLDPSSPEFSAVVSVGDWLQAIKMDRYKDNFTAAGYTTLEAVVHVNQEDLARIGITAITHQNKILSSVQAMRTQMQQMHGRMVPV", "conditions": "singlicate", "excerpt": "as §1"}},
  "note": "Where two headings read alike, the source gives them in different places.",
  "data": [
    {"smiles": "C#Cc1cc(Nc2ncnc3cc(I)ccc23)ccc1Cl", "note": "[Compound 41]", "values": [
      {"measurement": "Residual activity", "setting": "[1]; MEK1, 1.0E-06 M", "result": "104 % of control"},
      {"measurement": "Residual activity", "setting": "[1]; MEK1, 1.0E-07 M", "result": "109 % of control"},
      {"measurement": "Residual activity", "setting": "[2]; FLT3, 1.0E-06 M", "result": "94 % of control"},
      {"measurement": "Residual activity", "setting": "[2]; FLT3, 1.0E-07 M", "result": "95 % of control"},
      {"measurement": "Residual activity, PRKG1", "setting": "[3]; assay conc. 1.0E-06 M", "result": "72 % of control"},
      {"measurement": "Residual activity, PRKG1", "setting": "[3]; assay conc. 1.0E-07 M", "result": "88 % of control"},
      {"measurement": "Residual activity", "setting": "[4]; 1.0E-06 M", "result": "98 % of control"},
      {"measurement": "Residual activity", "setting": "[4]; 1.0E-07 M", "result": "101 % of control"},
      {"measurement": "Residual activity, ROCK1", "setting": "[5]; assay conc. 1.0E-06 M", "result": "91 % of control"},
      {"measurement": "Residual activity, ROCK1", "setting": "[5]; assay conc. 1.0E-07 M", "result": "84 % of control"},
      {"measurement": "Residual activity", "setting": "[6]; 1.0E-06 M", "result": "63 % of control"},
      {"measurement": "Residual activity", "setting": "[6]; 1.0E-07 M", "result": "76 % of control"},
      {"measurement": "Residual activity", "setting": "[7]; 1.0E-06 M", "result": "143 % of control"},
      {"measurement": "Residual activity", "setting": "[7]; 1.0E-07 M", "result": "148 % of control"},
      {"measurement": "Residual activity, STK33", "setting": "[8]; assay conc. 1.0E-06 M", "result": "89 % of control"},
      {"measurement": "Residual activity, STK33", "setting": "[8]; assay conc. 1.0E-07 M", "result": "98 % of control"},
      {"measurement": "Residual activity", "setting": "[9]; EPHA4, 1.0E-06 M", "result": "83 % of control"},
      {"measurement": "Residual activity", "setting": "[9]; EPHA4, 1.0E-07 M", "result": "96 % of control"}
    ]},
    {"smiles": "C#Cc1cc(Nc2ncnc3cc(OC)c(OC)cc23)ccc1Cl", "note": "[Compound 45]", "values": [
      {"measurement": "Residual activity", "setting": "[1]; MEK1, 1.0E-06 M", "result": "109 % of control"},
      {"measurement": "Residual activity", "setting": "[1]; MEK1, 1.0E-07 M", "result": "105 % of control"},
      {"measurement": "Residual activity", "setting": "[2]; FLT3, 1.0E-06 M", "result": "56 % of control"},
      {"measurement": "Residual activity", "setting": "[2]; FLT3, 1.0E-07 M", "result": "88 % of control"},
      {"measurement": "Residual activity, PRKG1", "setting": "[3]; assay conc. 1.0E-06 M", "result": "101 % of control"},
      {"measurement": "Residual activity, PRKG1", "setting": "[3]; assay conc. 1.0E-07 M", "result": "106 % of control"},
      {"measurement": "Residual activity", "setting": "[4]; 1.0E-06 M", "result": "95 % of control"},
      {"measurement": "Residual activity", "setting": "[4]; 1.0E-07 M", "result": "98 % of control"},
      {"measurement": "Residual activity, ROCK1", "setting": "[5]; assay conc. 1.0E-06 M", "result": "83 % of control"},
      {"measurement": "Residual activity, ROCK1", "setting": "[5]; assay conc. 1.0E-07 M", "result": "98 % of control"},
      {"measurement": "Residual activity", "setting": "[6]; 1.0E-06 M", "result": "31 % of control"},
      {"measurement": "Residual activity", "setting": "[6]; 1.0E-07 M", "result": "83 % of control"},
      {"measurement": "Residual activity", "setting": "[7]; 1.0E-06 M", "result": "122 % of control"},
      {"measurement": "Residual activity", "setting": "[7]; 1.0E-07 M", "result": "136 % of control"},
      {"measurement": "Residual activity, STK33", "setting": "[8]; assay conc. 1.0E-06 M", "result": "76 % of control"},
      {"measurement": "Residual activity, STK33", "setting": "[8]; assay conc. 1.0E-07 M", "result": "100 % of control"},
      {"measurement": "Residual activity", "setting": "[9]; EPHA4, 1.0E-06 M", "result": "61 % of control"},
      {"measurement": "Residual activity", "setting": "[9]; EPHA4, 1.0E-07 M", "result": "99 % of control"}
    ]}
  ]
}
